Test results from patent publication US11786584B2, “Peptides and combination of peptides for use in immunotherapy against prostate cancer and other cancers” (Immatics Biotechnologies GmbH, priority 2015, dated 2023).

Experiments:
HLA-A*24 = experiment: MHC binding assay by UV-ligand exchange and beta2m ELISA; design: species or system human; conditions: peptide exchange yield
From the text: (§1) Candidate peptides for T cell based therapies according to the present invention were further tested for their MHC binding capacity (affinity). The individual peptide-MHC complexes were produced by UV-ligand exchange, where a UV-sensitive peptide is cleaved upon UV-irradiation, and exchanged with the peptide of interest as analyzed. Only peptide candidates that can effectively bind and stabilize the peptide-receptive MHC molecules prevent dissociation of the MHC complexes. To determine the yield of the exchange reaction, an ELISA was performed based on the detection of the light chain (β2m) of stabilized MHC complexes. The assay was performed as generally described in Rodenko et al. (Rodenko et al., 2006).
(§2) 96 well MAXISorp plates (NUNC) were coated over night with 2 ug/ml streptavidin in PBS at room temperature, washed 4× and blocked for 1 h at 37° C. in 2% BSA containing blocking buffer. Refolded HLA-A*02:01/MLA-001 monomers served as standards, covering the range of 15-500 ng/ml. Peptide-MHC monomers of the UV-exchange reaction were diluted 100 fold in blocking buffer. Samples were incubated for 1 h at 37° C., washed four times, incubated with 2 ug/ml HRP conjugated anti-β2m for 1 h at 37° C., washed again and detected with TMB solution that is stopped with […]. Absorption was measured at 450 nm. Candidate peptides that show a high exchange yield (preferably higher than 50%, most preferred higher than 75%) are generally preferred for a generation and production of antibodies or fragments thereof, and/or T cell receptors or fragments thereof, as they show sufficient avidity to the MHC molecules and prevent dissociation of the MHC complexes.

CD8+ T cells = experiment: In vitro T-cell priming assay with aAPCs loaded with peptide/MHC and anti-CD28, multimer readout; assay type: cell-based, human; conditions: in vitro immunogenicity; for Wells positive [%]: Table 15B; for donors / wells: Table 15A; for donors: positive donors; for wells: positive wells
From the text: In order to obtain information regarding the immunogenicity of the TUMAPs of the present invention, the inventors performed investigations using an in vitro T-cell priming assay based on repeated stimulations of CD8+ T cells with artificial antigen presenting cells (aAPCs) loaded with peptide/MHC complexes and anti-CD28 antibody.
In order to perform in vitro stimulations by artificial antigen presenting cells loaded with peptide-MHC complex (pMHC) and anti-CD28 antibody, the inventors first isolated CD8+ T cells from fresh HLA-A*02 leukapheresis products via positive selection using CD8 microbeads (Miltenyi Biotec, Bergisch-Gladbach, Germany) of healthy donors obtained from the University clinics Mannheim, Germany, after informed consent.
PBMCs and isolated CD8+ lymphocytes were incubated in T-cell medium (TCM) until use consisting of RPMI-Glutamax (Invitrogen, Karlsruhe, Germany) supplemented with 10% heat inactivated human AB serum (PAN-Biotech, Aidenbach, Germany), 100 U/ml Penicillin/100 μg/ml Streptomycin (Cambrex, Cologne, Germany), 1 mM sodium pyruvate (CC Pro, Oberdorla, Germany), 20 μg/ml Gentamycin (Cambrex). 2.5 ng/ml IL7 (PromoCell, Heidelberg, Germany) and 10 U/ml IL-2 (Novartis Pharma, Nurnberg, Germany) were also added to the TCM at this step.
Generation of pMHC/anti-CD28 coated beads, T-cell stimulations and readout was performed in a highly defined in vitro system using four different pMHC molecules per stimulation condition and 8 different pMHC molecules per readout condition.
The purified co-stimulatory mouse IgG2a anti human CD28 Ab 9.3 (Jung et al., 1987) was chemically biotinylated using Sulfo-N-hydroxysuccinimidobiotin as recommended by the manufacturer (Perbio, Bonn, Germany). Beads used were 5.6 μm diameter streptavidin coated polystyrene particles (Bangs Laboratories, Illinois, USA).
800.000 beads/200 μl were coated in 96-well plates in the presence of 4×12.5 ng different biotin-pMHC, washed and 600 ng biotin anti-CD28 were added subsequently in a volume of 200 μl. Stimulations were initiated in 96-well plates by co-incubating […] CD8+ T cells with 2×10^5 washed coated beads in 200 μl TCM supplemented with 5 ng/ml IL-12 (PromoCell) for 3 days at 37° C. Half of the medium was then exchanged by fresh TCM supplemented with 80 U/ml IL-2 and incubating was continued for 4 days at 37° C. This stimulation cycle was performed for a total of three times. For the pMHC multimer readout using 8 different pMHC molecules per condition, a two-dimensional combinatorial coding approach was used as previously described (Andersen et al., 2012) with minor modifications encompassing coupling to 5 different fluorochromes. Finally, multimeric analyses were performed by staining the cells with Live/dead near IR dye (Invitrogen, Karlsruhe, Germany), CD8-FITC antibody clone SK1 (BD, Heidelberg, Germany) and fluorescent pMHC multimers. For analysis, a BD LSRII SORP cytometer equipped with appropriate lasers and filters was used. Peptide specific cells were calculated as percentage of total CD8+ cells. Evaluation of multimeric analysis was done using the FlowJo software (Tree Star, Oregon, USA). In vitro priming of specific multimer+ CD8+ lymphocytes was detected by comparing to negative control stimulations.

HLA-A*02 = HLA-A*02 (Homo sapiens, UniProt P04439, D140Y/D185E/D98H/E176V/E277Q/G131W/G231S/I119V/I121R/I166T/I218V/L300P/N151K/N90K/P208A/P217A/Q86G/Q94H/R138H/R169H); experiment: MHC binding assay by UV-ligand exchange and beta2m ELISA; conditions: peptide exchange yield
From the text: as §1, §2

Substance | Peptide exchange (HLA-A*24) | Peptide exchange (HLA-A*02) | further results
3 (HLLEDIAHV; listed as Homo sapiens) [compound 3] |  | ++++ (>75% = ++++) | Wells positive [%] (CD8+ T cells): ++ (20%-49% = ++)
4 (ALLTFVWKL; listed as Homo sapiens) [compound 4] |  | ++++ (>75% = ++++) | 
31 (AYTSPPSFF; listed as Homo sapiens) [compound 31] | +++ (>50 = +++) |  | 
17 (RLGIKPESV; listed as Homo sapiens) [compound 17] |  |  | donors (CD8+ T cells): ++++ (>=70% = ++++); wells (CD8+ T cells): ++ (20%-49% = ++)
34 (AFSPDSHYLLF; listed as Homo sapiens) [compound 34] | +++ (>50 = +++) |  | donors (CD8+ T cells): +++ (50%-69% = +++); wells (CD8+ T cells): + (<20% = +)
9 (GMLNEAEGKAIKL; listed as Homo sapiens) [compound 9] |  | +++ (>50 = +++) | 
7 (TLLQVVGVVSV; listed as Homo sapiens) [compound 7] |  | ++ (>20% = ++) | 
28 (YYAKEIHKF; listed as Homo sapiens) [compound 28] | ++++ (>75% = ++++) |  | 
26 (RYADDTFTPAF; listed as Homo sapiens) [compound 26] | +++ (>50 = +++) |  | 
6 (ALLESRVNL; listed as Homo sapiens) [compound 6] |  | ++++ (>75% = ++++) | Wells positive [%] (CD8+ T cells): + (<20% = +)
15 (KMDEASAQLLA; listed as Homo sapiens) [compound 15] |  | +++ (>50 = +++) | 
27 (GYLQGLVSF; listed as Homo sapiens) [compound 27] | ++++ (>75% = ++++) |  | Wells positive [%] (CD8+ T cells): ++ (20%-49% = ++)
1 (VTAQIGIVAV; listed as Homo sapiens) [compound 1] |  | ++++ (>75% = ++++) | Wells positive [%] (CD8+ T cells): ++++ (>=70% = ++++)
24 (SYNDALLTF; listed as Homo sapiens) [compound 24] | +++ (>50 = +++) |  | Wells positive [%] (CD8+ T cells): +++ (50%-69%= +++)
20 (SLLSHQVLL; listed as Homo sapiens) [compound 20] |  | +++ (>50 = +++) | 
22 (SLYDSIAFI; listed as Homo sapiens) [compound 22] |  | ++++ (>75% = ++++) | 
10 (TLWRGPVVV; listed as Homo sapiens) [compound 10] |  | +++ (>50 = +++) | 
2 (SMLGEEIQL; listed as Homo sapiens) [compound 2] |  | ++++ (>75% = ++++) | 
16 (KMDEASAQL; listed as Homo sapiens) [compound 16] |  | +++ (>50 = +++) | 
29 (RYGSPINTF; listed as Homo sapiens) [compound 29] | +++ (>50 = +++) |  | donors (CD8+ T cells): +++ (50%-69% = +++); wells (CD8+ T cells): + (<20% = +)
21 (YLNDSLRHV; listed as Homo sapiens) [compound 21] |  | ++ (>20% = ++) | 
14 (KMDEASAQLL; listed as Homo sapiens) [compound 14] |  | ++ (>20% = ++) | 
13 (AMAPNHAVV; listed as Homo sapiens) [compound 13] |  | +++ (>50 = +++) | 
30 (SYSPAHARL; listed as Homo sapiens) [compound 30] | +++ (>50 = +++) |  | 
32 (PYQLNASLFTF; listed as Homo sapiens) [compound 32] | ++++ (>75% = ++++) |  | 
11 (YLEEECPAT; listed as Homo sapiens) [compound 11] |  | ++ (>20% = ++) | 
25 (IYEPYLAMF; listed as Homo sapiens) [compound 25] | +++ (>50 = +++) |  | 
33 (QYGKDFLTL; listed as Homo sapiens) [compound 33] | +++ (>50 = +++) |  | 
5 (KIFSRLIYI; listed as Homo sapiens) [compound 5] |  | +++ (>50 = +++) | Wells positive [%] (CD8+ T cells): +++ (50%-69%= +++)

Now from value to substance, other results behind:

Peptide exchange (HLA-A*24) | Peptide exchange (HLA-A*02) | Substance | further results
++ (>20% = ++) |  | 56 (LFHPEDTGQVF; listed as Homo sapiens) [compound 56] | 
++ (>20% = ++) |  | 45 (RYFKTPRKF; listed as Homo sapiens) [compound 45] | 
+++ (>50 = +++) |  | 44 (VYNTVSEGTHF; listed as Homo sapiens) [compound 44] | 
++ (>20% = ++) |  | 35 (IYTRVTYYL; listed as Homo sapiens) [compound 35] | donors (CD8+ T cells): ++++ (>=70% = ++++); wells (CD8+ T cells): ++ (20%-49% = ++)
+++ (>50 = +++) |  | 54 (AYSEKVTEF; listed as Homo sapiens) [compound 54] | 
++ (>20% = ++) |  | 58 (GYIDKVRQL; listed as Homo sapiens) [compound 58] | 
++++ (>75% = ++++) |  | 55 (LYFEKGEYF; listed as Homo sapiens) [compound 55] | 
+++ (>50 = +++) |  | 41 (RYLQKIEEF; listed as Homo sapiens) [compound 41] | 
 | +++ (>50 = +++) | 53 (YLLKDKGEYTL; listed as Homo sapiens) [compound 53] | 
+++ (>50 = +++) |  | 36 (RYMWINQEL; listed as Homo sapiens) [compound 36] | 
+++ (>50 = +++) |  | 59 (IYPDVTYAF; listed as Homo sapiens) [compound 59] | 
++++ (>75% = ++++) |  | 47 (SYTPVLNQF; listed as Homo sapiens) [compound 47] | 
+++ (>50 = +++) |  | 42 (TYIGQGYII; listed as Homo sapiens) [compound 42] | donors (CD8+ T cells): ++++ (>=70% = ++++); wells (CD8+ T cells): + (<20% = +)
+++ (>50 = +++) |  | 43 (AYIKNGQLF; listed as Homo sapiens) [compound 43] | 
 | +++ (>50 = +++) | 52 (ALGDLVQSV; listed as Homo sapiens) [compound 52] | 
+++ (>50 = +++) |  | 48 (AWAPKPYHKF; listed as Homo sapiens) [compound 48] | 
